System: mammary adenocarcinoma cells
Test: Dark Agouti Mammary Adenocarcinoma (DAMA) tumour-bearing model: tumour growth and MTX efficacy
Format: in vivo, rat
Details: MTX treated rats
Protocol: Tumour-bearing studies were conducted in accordance with ethical guidelines approved by the University of Adelaide Animal Ethics committee in accordance with the National Health and Medical Research Committee's Code for the care and use of animals for scientific research. All experiments were performed with N=8 rats per group.
The rats were individually-housed in conventional, open top cages under 12 h light/dark cycles with ad libitum access to autoclaved food and sterile water. Sawdust bedding was provided in all cases with enrichment (crinkle paper for tumour-naïve model or toilet rolls for tumour-bearing model). All cages were randomly arranged across racks to prevent potential bias and dampen variation.
The Dark Agouti Mammary Adenocarcinoma (DAMA) model was used to assess the effect of a composition comprising hydrolysed whey proteins and MCTs on tumor growth. Following acclimatisation (1 week with AIN93G control diet), female DA rats weighing 150-170 g were given ad libitum access to the test or control diet (table 1) for two weeks prior to methotrexate (MTX) treatment (day-14). […] Tumours were measured daily using digital calipers to determine their volume (cm^3). Tumour burden was calculated as tumour length width*depth (volume) and expressed as relative to body weight (% BW, cm^3/g). […]

With `CN(Cc1cnc2nc(N)nc(N)c2n1)c1ccc(C(=O)N[C@@H](CCC(=O)O)C(=O)O)cc1` [MTX, methotrexate] the “tumour burden at necropsy (FIG. 1B volume, FIG. 1C weight, relative to body weight)” value was “significantly decreased to (near) zero”.
